The experiment concerns the target T1, GB1CBS(1–40) (Homo sapiens, UniProt P35520).
T1 construct: gene CBS; His6 tag cut with thrombin; E. coli BL21(DE3); full-length CBS 551 residues
T1 sequence (P35520 1-40): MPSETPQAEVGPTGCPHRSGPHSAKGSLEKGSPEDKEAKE
Nature of the experiment: UV/Vis titration, Soret band at […] nm. In kind it is binding.

From publication PMC5802807, “Heme interaction of the intrinsically disordered N-terminal peptide segment of human cystathionine-β-synthase” (Scientific Reports, 2018) come the findings set out here.

By Kd is commonly meant the concentration at which binding is half-saturated. Lower therefore signals tighter binding. As for `C=CC1=C(C)C2=Cc3c(C=C)c(C)c4[n]3[Fe]([Cl])[n]3c(c(C)c(CCC(=O)O)c3=CC3=NC(=C4)C(C)=C3CCC(=O)O)=CC1=N2` [hemin], the affinity, expressed as Kd, was 2180 ± 640 nM.
